Assay results: US20260060947A1 (INSTITUT PASTEUR DE MONTEVIDEO, priority 2019, published 2026)
Values joined by “and” are separate entries in the source; they are usually repeats but may differ in a detail not shown here. Equal entries are not always repeated. “Also recorded” adds a separate entry of the source.

Key:
[1] = BANA plasma levels by RP-HPLC after oral administration; assay type: in vivo, SOD1^G93A rats
Protocol: Only female transgenic rats showing weakness and gait alterations in the […] as the first clinical sign were selected for BANA treatment studies. Rats were divided randomly into BANA or vehicle-treated groups. BANA was freshly prepared in buffer phosphate (PB), and administrated daily at a dose of 100 mg/kg using a curved stainless steel gavage needle with 3-mm ball tip. Rats were treated from day-1 post-paralysis for 15 days or until end-stage when they were euthanized.
For the detection of BANA in plasma, experiments were performed using RP-HPLC analysis (Agilent 1200 HPLC system). Rats were sacrificed and plasma samples were obtained. 100 μL of plasma was incubated with HgCl2 (20 mM) at 37° C. for 30 minutes and after that extracted with 900 μL of acetonitrile (ACN) and injected into HPLC in a 20-40% gradient of B in 10 minutes. BANA plasma concentration was calculated from a standard curve using Salicylate as an internal standard. (CPAK C-18, […], 150 mm×3.9 mm I.D. column; A phase: H2O 0.1% Formic acid; B phase: ACN 0.1% Formic acid; detection at 300 nm)
Rates were dosed with 100 mg/kg/day of BANA administered orally.

[2] = LC50 in cell culture of HT-29; assay type: cell-based; conditions: human, HT-29 cells; HT-29 cell culture
[3] = system: NF-κB; test: LPS-induced NF-κB-dependent gene expression in THP-1 cells (qPCR); assay type: cell-based, Human; conditions: 30 μM for 2 hs, then LPS 100 ng/mL
Protocol: The effect of BANA or BA over NF-κB-dependent gene expression was studied by qPCR using THP-1 cells. THP-1 cells were differentiated into macrophages and treated with BANA (30 μM) or BA (30 μM) for 2 hs, followed by stimulation with LPS (100 ng/mL, for 3-4 h).
TNFα, CCL2, IL6 and IL-1β expression was analyzed by RT-PCR. Real-time PCR analysis was conducted as follows: Total mRNA was extracted from THP-1 cells to quantify TNFα, IL-6 and MCP-1-fold change gene expression over control (β-actin) by qPCR assay. Purified RNA was transcripted to cDNA using Superscript II Reverse Transcriptase with Oligo (dT). The cDNA for real-time PCR was obtained with a Piko 24 Thermal Cycler (Thermo Scientific). mRNA expression analysis was calculated using the ddCt method with β-Actin as the house keeping gene. SYBR Green was used as DNA binding dye and the qRT-PCR was done in an Eco Illumina thermocycler. Human primers sequences were used for THP-1 cells: […]

[4] = system: NF-κB-p65; test: LPS-induced NF-κB-p65 nuclear translocation in SOD1^G93A primary microglia; assay type: cell-based, rat; conditions: BANA 10-30 μM before LPS
Protocol: FIG. 8D: Confocal images show CD11b-positive SOD1^G93A primary microglia (grey) treated with BANA, BA or vehicle, before LPS stimulation. […] Nuclear NF-κB-p65 colocalizing with DAPI nuclear staining is denoted in yellow.
Nuclear NF-κB-p65 colocalizing with DAPI nuclear staining is denoted in yellow. […] Scale bar=20 μm. […] 2 replicates of 3 independent experiments.
The effects of BANA on LPS- or TNFα-induced NF-κB activation were also assayed in cell cultures of BV2 microglial cell line and primary adult microglia isolated from symptomatic SOD1^G93A rats, and HT-29 NF-κB reporter cell line, respectively.

O=C(O)c1ccc(/C=C/[N+](=O)[O-])cc1 [BANA, (E)-4-(2-nitrovinyl) benzoic acid]
[BANA] in plasma, sample + HgCl2 ([1]; SOD1^G93A symptomatic rats, 15 days oral daily 100 mg/kg, plasma incubated with HgCl2 (20 mM, 37° C., 30 min), 100 mg/kg): 3.69 μm and 3.45 μm and 3.58 μm | concentration at 15 days ([1]; female, SOD1^G93A transgenic, rat, plasma, po, 100 mg/kg, SOD1^G93A symptomatic rats, 15 days oral daily 100 mg/kg, plasma incubated with HgCl2 (20 mM, 37° C., 30 min), read-out: [BANA] in plasma, sample + HgCl2): 3.29 µM | BANA plasma levels reached ([1]; rats, 100 mg/kg/day orally, HPLC): 3.49 µM | fraction of plasma BANA covalently linked to proteins ([1]; rats, oral 100 mg/kg/day for 5 days): more than 90% | plasma concentration after oral administration (in words) ([1]; rats, oral administration): low micromolar concentration | CC50 [2]: 80 µM | levels of mRNA coding for TNFα, MCP-1 and IL-6 [3]: potently prevented; also recorded: abrogated | LPS-induced NF-κB-p65 nuclear translocation [4]: inhibits; also recorded: potently prevented
